Measurements reported in patent publication US6344484B1, “Tyrosine alkoxyguanidines as integrin inhibitors” (3-Dimensional Pharmaceuticals, Inc., priority 1999, dated 2002).
Where a name gives a salt, the structure may show the parent alone. Read-outs that look alike come from different tables or passages of the source.

How the values were obtained:
[1] = target: T1, human αvβ3 (Homo sapiens, UniProt P05106+P06756); experiment: αvβ3-vitronectin assay (ELISA, inhibition of αvβ3-vitronectin interaction); type: binding
T1 construct: purchased Chemicon CC10118
Method: The assay was based on the method of Niiya (Niiya, K., et al., Blood 70:475-483 (1987)). Costar 9018 flat-bottom 96-well ELISA plates were coated overnight at 4° C. with 100 μL/well of 0.4 μg/mL human αvβ3 (Chemicon CC10118) in TS buffer (20 mM Tris-HCl pH 7.5, 150 mM NaCl, 1 mM CaCl2, 1 mM MgCl2, 1 mM MnCl2). All subsequent steps were performed at room temperature. Plates were blocked for 2 hr with 200 μL/well of TS buffer containing 1% BSA (TSB buffer), and washed 5 times with 200 μL/well of TS buffer. Controls or test compound (0.44-455 nM) were mixed with 1 μg/mL of human vitronectin (Chemicon CC1019) that had been biotinylated in-house with sulfo-NHS-LC-LC-biotin (Pierce 21338, 20:1 molar ratio), and 100 μL/well of these solutions (in TSB buffer) were incubated for 2 hr. The plate was then washed 5 times with TS buffer, and 100 μL/well of 1 μ/mL NeutrAvidin-horseradish peroxidase conjugate (Pierce 31001) in TSB buffer was incubated for 1 hr. Following a 5-fold TS buffer wash, the plate was developed and results were calculated as described for the fibrinogen-IIbIIIa assay.

[2] = target: T2, human GPIIbIIIa (Homo sapiens, UniProt P05106+P08514); experiment: Fibrinogen-IIb-IIIa assay (ELISA, inhibition of fibrinogen-GPIIbIIIa interaction); type: binding; details: mean of three replicate determinations; FIG. 1
T2 construct: purchased Enzyme Research Laboratories
Method: Fibrinogen-IIb-IIIa assay
The assay is based on the method of Dennis (Dennis, M. S., et al, Proteins 15: 312-321 (1993)). Costar 9018 flat-bottom 96-well ELISA plates were coated overnight at 4° C. with 100 μL/well of 10 μg/mL human fibrinogen (Calbiochem 341578) in 20 mM Tris-HCl pH 7.5, 150 mM NaCl, 2 mM CaCl2, 0.02% NaN3 (TAC buffer), and blocked for 1 hr at 37° C. with 150 μL/well of TAC buffer containing 0.05% Tween 20 and 1% bovine serum albumin (TACTB buffer). After washing 3 times with 200 μL/well of 10 mM Na2HPO4 pH 7.5, 150 mM NaCl, 0.01% Tween 20 (PBST buffer), controls or test compound (0.036-18.2 μM) were mixed with 40 μg/mL human GPIIbIIIa (Enzyme Research Laboratories) in TACTB buffer, and 100 μL/well of these solutions were incubated for 2 hr at 37° C. The plate was then washed 3 times with PBST buffer, and 100 μL/well of a monoclonal anti-GPIIbIIIa antibody in TACTB buffer (1 μg/mL, Enzyme Research Laboratories MabGP2b3a) was incubated at 37° C. for 1 hr. […] The reaction was stopped with 50 μL/well of 2M H2SO4, and the absorbence at 492 nm was recorded. Percent (%) inhibition was calculated from the average of three separate determinations relative to buffer controls (no test compound added), and a four parameter fit (Marquardt, D. W., J. Soc. Indust. Appl. Math. 11:431-441 (1963)) was used to estimate the half maximal inhibition concentration (IC50).

[3] = Table I, read-out: αvβ3 IC50 (nM), inhibition of the αvβ3-vitronectin interaction

T1 sequence (P06756 31-889 limits assumed): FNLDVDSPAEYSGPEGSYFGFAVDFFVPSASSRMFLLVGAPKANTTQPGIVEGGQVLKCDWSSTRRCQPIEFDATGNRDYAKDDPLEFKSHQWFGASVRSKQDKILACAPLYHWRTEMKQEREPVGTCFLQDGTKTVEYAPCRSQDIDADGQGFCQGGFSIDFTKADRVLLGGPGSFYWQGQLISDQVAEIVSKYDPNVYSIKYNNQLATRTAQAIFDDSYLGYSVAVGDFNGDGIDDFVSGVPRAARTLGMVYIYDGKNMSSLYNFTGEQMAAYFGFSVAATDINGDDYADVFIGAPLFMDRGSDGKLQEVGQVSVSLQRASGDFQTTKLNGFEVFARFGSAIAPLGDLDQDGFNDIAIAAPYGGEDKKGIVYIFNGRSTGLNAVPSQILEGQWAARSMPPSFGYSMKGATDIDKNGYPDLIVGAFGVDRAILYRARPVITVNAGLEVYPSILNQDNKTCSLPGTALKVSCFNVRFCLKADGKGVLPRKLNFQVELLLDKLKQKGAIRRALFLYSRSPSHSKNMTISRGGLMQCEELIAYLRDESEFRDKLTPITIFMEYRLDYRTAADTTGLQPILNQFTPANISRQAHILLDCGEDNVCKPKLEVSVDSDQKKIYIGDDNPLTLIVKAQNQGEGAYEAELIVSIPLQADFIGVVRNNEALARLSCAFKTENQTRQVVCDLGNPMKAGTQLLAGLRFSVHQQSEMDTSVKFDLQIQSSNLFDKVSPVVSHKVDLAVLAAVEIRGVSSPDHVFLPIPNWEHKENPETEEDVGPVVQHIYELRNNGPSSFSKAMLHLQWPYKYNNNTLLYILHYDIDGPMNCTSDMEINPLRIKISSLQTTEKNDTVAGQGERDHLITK
T1 sequence (P06756 891-1048 partner limits assumed): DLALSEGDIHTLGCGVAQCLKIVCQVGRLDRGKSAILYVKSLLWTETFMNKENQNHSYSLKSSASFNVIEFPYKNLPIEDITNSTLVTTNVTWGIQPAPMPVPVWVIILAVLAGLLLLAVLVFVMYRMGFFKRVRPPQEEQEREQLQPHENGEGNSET
T1 sequence (P05106 27-788): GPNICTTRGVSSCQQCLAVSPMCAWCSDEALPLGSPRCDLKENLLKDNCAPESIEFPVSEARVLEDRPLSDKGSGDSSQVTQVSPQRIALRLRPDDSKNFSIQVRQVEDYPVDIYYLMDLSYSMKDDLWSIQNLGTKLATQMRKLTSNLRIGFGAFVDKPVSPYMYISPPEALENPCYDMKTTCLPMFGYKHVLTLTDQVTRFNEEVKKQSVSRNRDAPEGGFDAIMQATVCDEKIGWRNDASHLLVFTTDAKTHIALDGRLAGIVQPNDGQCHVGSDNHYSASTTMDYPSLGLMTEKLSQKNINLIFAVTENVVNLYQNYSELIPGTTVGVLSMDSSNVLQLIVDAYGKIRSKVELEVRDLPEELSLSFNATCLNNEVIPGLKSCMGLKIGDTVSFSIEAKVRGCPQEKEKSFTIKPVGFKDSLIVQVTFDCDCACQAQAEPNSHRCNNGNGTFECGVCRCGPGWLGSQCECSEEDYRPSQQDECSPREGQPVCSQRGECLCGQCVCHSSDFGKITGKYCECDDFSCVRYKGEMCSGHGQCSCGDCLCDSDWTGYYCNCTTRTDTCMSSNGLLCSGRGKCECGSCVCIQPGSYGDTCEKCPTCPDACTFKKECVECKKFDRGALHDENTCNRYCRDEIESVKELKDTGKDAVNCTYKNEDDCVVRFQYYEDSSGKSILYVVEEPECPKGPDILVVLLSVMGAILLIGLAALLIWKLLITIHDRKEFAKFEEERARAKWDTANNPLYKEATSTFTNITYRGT
T2 sequence (P08514 32-887 limits assumed): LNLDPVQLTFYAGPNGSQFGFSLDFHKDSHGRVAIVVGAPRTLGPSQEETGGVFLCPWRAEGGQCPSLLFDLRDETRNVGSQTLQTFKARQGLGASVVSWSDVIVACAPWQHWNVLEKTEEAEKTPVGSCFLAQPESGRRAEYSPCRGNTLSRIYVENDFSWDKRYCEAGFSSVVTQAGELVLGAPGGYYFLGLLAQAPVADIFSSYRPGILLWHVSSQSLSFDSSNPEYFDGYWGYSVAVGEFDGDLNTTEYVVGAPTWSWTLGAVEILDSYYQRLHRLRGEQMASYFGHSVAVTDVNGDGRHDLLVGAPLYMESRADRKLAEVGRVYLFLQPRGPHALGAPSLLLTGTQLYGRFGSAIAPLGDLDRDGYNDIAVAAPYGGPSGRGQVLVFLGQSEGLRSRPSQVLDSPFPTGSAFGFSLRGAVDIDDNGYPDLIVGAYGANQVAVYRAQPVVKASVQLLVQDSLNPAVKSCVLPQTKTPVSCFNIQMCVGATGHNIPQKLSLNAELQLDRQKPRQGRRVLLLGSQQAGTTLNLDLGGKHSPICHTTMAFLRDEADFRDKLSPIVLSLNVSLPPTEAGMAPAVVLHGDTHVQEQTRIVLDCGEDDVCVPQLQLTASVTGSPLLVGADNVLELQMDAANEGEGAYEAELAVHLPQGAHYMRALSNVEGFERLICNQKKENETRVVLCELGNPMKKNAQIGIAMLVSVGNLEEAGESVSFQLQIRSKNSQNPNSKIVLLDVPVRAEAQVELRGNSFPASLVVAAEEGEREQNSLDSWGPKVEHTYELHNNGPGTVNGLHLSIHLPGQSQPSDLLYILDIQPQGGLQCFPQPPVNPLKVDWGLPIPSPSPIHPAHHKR
T2 sequence (P08514 891-1039 partner limits assumed): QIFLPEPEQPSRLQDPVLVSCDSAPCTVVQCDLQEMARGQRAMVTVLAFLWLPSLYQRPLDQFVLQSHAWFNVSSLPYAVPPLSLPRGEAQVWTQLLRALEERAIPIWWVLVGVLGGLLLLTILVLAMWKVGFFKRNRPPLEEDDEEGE
T2 sequence (P05106 27-788): as the sequence (P05106 27-788) above

| Structure (SMILES) | IC50 [1, 3] | IC50 ([1]; mean of three replicate determinations, FIG. 2, read-out: IC50, inhibition of the αvβ3-vitronectin interaction) | IC50 [2] |
| --- | --- | --- | --- |
| Cc1nn(C)c(Cl)c1S(=O)(=O)N[C@@H](Cc1ccc(OCCCONC(=N)N)cc1)C(=O)O [Example 77, (2S)-3-{4-[3-(Amidinoaminooxy)propoxy]phenyl}-2-{[(5-chloro-1,3-dimethylpyrazol-4-yl)sulfonyl]amino}propanoic acid trifluoroacetic acid salt] | 6 nM |  |  |
| CCCCS(=O)(=O)N[C@@H](Cc1ccc(OCCCONC(=N)N)cc1)C(=O)O [Example 1, (2S)-3-{4-[3-(amidinoaminooxy)propoxy]phenyl}-2-[(butylsulfonyl)amino]propanoic acid trifluoroacetic acid] |  | 28 nM | 780 nM |
| N=C(N)NOCCCOc1ccc(C[C@H](NS(=O)(=O)c2c(Cl)cccc2Cl)C(=O)O)cc1 [Example 46, (2S)-3-{4-[3-(Amidinoaminooxy)propoxy]phenyl}-2-{[(2,6-dichlorophenyl)sulfonyl]amino}propanoic acid trifluoroacetic acid salt] | 2 nM |  |  |
| CC1(C)C2CCC1(CS(=O)(=O)N[C@@H](Cc1ccc(OCCCONC(=N)N)cc1)C(=O)O)C(=O)C2 (stereo partly drawn) [Example 86, (2S)-2-{[(1S)-10-Camphorsulfonyl]amino}-3-{4-[3-(amidinoaminooxy)propoxy]phenyl}propanoic acid trifluoroacetic acid salt] | 1 nM |  |  |
| Cc1ccc([N+](=O)[O-])cc1S(=O)(=O)N[C@@H](Cc1ccc(OCCCONC(=N)N)cc1)C(=O)O [Example 11, (2S)-3-{4-[3-(Amidinoaminooxy)propoxy]phenyl)}-2-{[(2-methyl-5-nitrophenyl)sulfonyl]amino}propanoic acid trifluoroacetic acid salt] | 2 nM |  |  |
